# Source: PMC5913127 (Scientific Reports, 2018)
# How the values were obtained:
# aducanumab = assay: ELISA of aducanumab on plates coated with truncated Aβ peptides; type: binding, human; conditions: for EC50: aducanumab on peptide coated or captured at 5 μg/mL (multivalent effects), antibody from 100 nM, 2 h room temperature, read-out: Binding activity (EC50); for Fold reduction (relative to Aβ1-42): reduction of aducanumab binding affinity, peptide 5 μg/mL
# Procedure: For N-terminally truncated Aβ peptides, untagged peptides were used. For ELISA, 96-well microplates were coated with 5 μg/mL peptide in Coating Buffer (15 mM Na2CO3, 35 mM NaHCO3, pH 9.6) overnight at 4 °C. Plates were washed and non-specific binding sites were blocked with 2% BSA in PBS for 1 h at 25 °C. Serially diluted antibody starting from 100 nM in Assay Buffer (2% BSA in PBS) was added, and the plates were incubated for 2 h at room temperature. Binding was determined by incubation with an HRP-conjugated goat anti-human polyclonal antibody (Jackson ImmunoResearch) followed by measurement of HRP activity using Ultra TMB ELISA Colorimetric Substrate Solution (Thermo Fisher Scientific). For C-terminally truncated Aβ peptides, biotin-conjugated peptides were used. The biotin was attached synthetically to the C terminus of the protein by incorporation of a non-native lysine residue. For ELISA, biotin-conjugated peptides were incubated for 1 h at room temperature, at a concentration of 5 μg/mL in Assay Buffer, using plates that were pre-coated with neutravidin (Thermo Fisher Scientific, Reacti-Bind plates). Plates were washed, antibodies diluted serially in Assay Buffer were added, and binding was measured as described above.
# Aβ (Monomer, Aggregate) = conditions: A = aggregate, M = monomer; ref [9]–[19],[54] as given per antibody in column Ref. of Table 1; cited from earlier work
Substance,EC50 (aducanumab) [nM],Fold reduction (relative to Aβ1-42) (aducanumab) [fold],Fold reduction (relative to Aβ1-42) (aducanumab; listed as Aβ5-42) [fold],"Aβ selectivity (Monomer, Aggregate) (Aβ (Monomer, Aggregate))"
5–42: untagged N-terminally truncated Aβ peptide,36,96,> 40,–
6–42: untagged N-terminally truncated Aβ peptide,140,390,–,–
8–42: untagged N-terminally truncated Aβ peptide,150,400,–,–
solanezumab: anti-Aβ clinical candidate antibody; mouse analog m266,–,–,–,M ≫ A
